From BindingDB's records for patent US20260028352 (Suzhou Langrui Biopharmaceutical, 2026)

Experiments:
[1] = biological target: High affinity nerve growth factor receptor (Homo sapiens, UniProt P04629); experiment: Inhibitory Activity of Compounds Against TRKA and TRKA(F589L) Kinases
Procedure: (§1) Kinase Assay Process: 1× Kinase buffer was prepared. […] 10 μL of the 2.5× final concentration kinase solution was added to the compound wells and the positive control wells, and 10 μL of 1× Kinase buffer was added to the negative control wells. The plate was centrifuged at 1000 rpm for 30 seconds, vortexed for mixing, and then incubated at room temperature for 10 minutes. A mixture of 5/3× final concentration of ATP and Kinase Substrate 22 was prepared using 1× Kinase buffer. 15 μL of the mixture of the 5/3× final concentration ATP and the substrate was added to initiate the reaction, the 384-well plate was centrifuged at 1000 rpm for 30 seconds, vortexed for mixing, and incubated at room temperature for the required time. 30 μL of the termination solution was added to stop the kinase reaction, the plate was centrifuged at 1000 rpm for 30 seconds, and vortexed for mixing. The conversion rate was measured using the Caliper EZ Reader.

[2] = biological target: High affinity nerve growth factor receptor NTRK1 [F589L] (UniProt P04629, F589L); experiment: as above
Procedure: as §1

High affinity nerve growth factor receptor, sequence (P04629 whole entry): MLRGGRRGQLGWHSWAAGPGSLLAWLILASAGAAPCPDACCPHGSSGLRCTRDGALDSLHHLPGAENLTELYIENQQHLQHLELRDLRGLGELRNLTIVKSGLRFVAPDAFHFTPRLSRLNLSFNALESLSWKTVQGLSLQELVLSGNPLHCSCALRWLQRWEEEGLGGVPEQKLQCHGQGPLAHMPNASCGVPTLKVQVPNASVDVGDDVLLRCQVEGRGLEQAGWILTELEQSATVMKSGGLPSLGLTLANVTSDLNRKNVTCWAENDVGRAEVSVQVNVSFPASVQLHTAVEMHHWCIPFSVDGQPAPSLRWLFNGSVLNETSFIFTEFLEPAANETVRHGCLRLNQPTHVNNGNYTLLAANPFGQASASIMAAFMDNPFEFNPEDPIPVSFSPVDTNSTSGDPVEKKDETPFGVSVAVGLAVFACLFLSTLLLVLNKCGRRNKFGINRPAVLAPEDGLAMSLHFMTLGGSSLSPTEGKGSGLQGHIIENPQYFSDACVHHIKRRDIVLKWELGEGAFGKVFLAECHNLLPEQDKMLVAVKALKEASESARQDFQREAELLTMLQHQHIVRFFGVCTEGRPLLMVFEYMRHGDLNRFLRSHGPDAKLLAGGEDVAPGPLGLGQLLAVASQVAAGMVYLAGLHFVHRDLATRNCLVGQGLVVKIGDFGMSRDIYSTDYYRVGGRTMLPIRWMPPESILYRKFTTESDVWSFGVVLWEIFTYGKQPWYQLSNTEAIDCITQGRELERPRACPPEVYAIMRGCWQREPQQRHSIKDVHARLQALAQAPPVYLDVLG
High affinity nerve growth factor receptor NTRK1 [F589L], sequence (P04629 33-796 F589L limits assumed): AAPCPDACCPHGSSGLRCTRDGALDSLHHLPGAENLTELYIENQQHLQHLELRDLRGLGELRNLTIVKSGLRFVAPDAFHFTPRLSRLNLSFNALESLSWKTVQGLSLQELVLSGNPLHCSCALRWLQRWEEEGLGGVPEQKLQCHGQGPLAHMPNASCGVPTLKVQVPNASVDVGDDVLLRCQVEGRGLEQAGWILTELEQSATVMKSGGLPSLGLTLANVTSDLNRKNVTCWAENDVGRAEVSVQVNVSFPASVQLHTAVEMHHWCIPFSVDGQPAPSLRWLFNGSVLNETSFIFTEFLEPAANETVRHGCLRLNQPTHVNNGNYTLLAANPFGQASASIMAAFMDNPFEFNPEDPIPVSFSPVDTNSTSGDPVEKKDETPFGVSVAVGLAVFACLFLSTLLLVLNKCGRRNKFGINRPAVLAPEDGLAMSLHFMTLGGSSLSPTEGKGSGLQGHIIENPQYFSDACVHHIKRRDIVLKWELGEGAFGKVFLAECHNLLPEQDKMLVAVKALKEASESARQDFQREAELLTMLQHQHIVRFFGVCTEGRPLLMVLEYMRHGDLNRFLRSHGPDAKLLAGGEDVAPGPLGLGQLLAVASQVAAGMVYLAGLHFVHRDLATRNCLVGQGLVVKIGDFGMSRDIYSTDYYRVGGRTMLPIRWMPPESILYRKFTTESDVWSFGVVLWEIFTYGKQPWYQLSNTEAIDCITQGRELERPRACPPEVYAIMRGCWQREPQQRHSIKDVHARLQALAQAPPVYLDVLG

| IC50 [1] [nM] | IC50 [2] [nM] | SMILES |
| --- | --- | --- |
| < 3 |  | Fc1cnc2c(c1)[C@H]1CCCN1c1ccc3ncc(n3n1)-c1cc(ncn1)CCO2 [US20260028352, Example I-71] |
| < 3 |  | Fc1cnc2c(c1)[C@H]1C[C@H](F)CN1c1ccc3ncc(n3n1)-c1cc(ncn1)CCO2 [US20260028352, Example I-72] |
| < 3 | < 5 | C[C@H]1Cc2ccnc(n2)-c2cnc3ccc(nn23)N2C[C@@H](F)C[C@@H]2c2cc(F)cnc2O1 [US20260028352, Example I-96] |
| < 3 | < 5 | C[C@H]1Nc2ccc3ncc(n3n2)-c2cc(ncn2)COc2ccc(F)cc21 [US20260028352, Example I-78] |
| < 3 |  | Fc1ccc2c(c1)[C@H]1CCCN1c1ccc3ncc(n3n1)-c1nccc(n1)CCO2 [US20260028352, Example I-92] |
| < 3 |  | C[C@H]1Nc2ccc3ncc(n3n2)-c2nccc(n2)CCOc2ncc(F)cc21 [US20260028352, Example I-83] |
| < 3 |  | Fc1ccc2c(c1)[C@H]1C[C@H](F)CN1c1ccc3ncc(n3n1)-c1cc(ncn1)CCO2 [US20260028352, Example I-70] |
| < 3 | < 5 | C[C@H]1Nc2ccc3ncc(n3n2)-c2cc(ncn2)CCOc2ncc(F)cc21 [US20260028352, Example I-73] |
| < 3 | < 5 | C[C@H]1Nc2ccc3ncc(n3n2)-c2cc(cnn2)COc2ccc(F)cc21 [US20260028352, Example I-82] |
| < 3 |  | C[C@H]1Nc2ccc3ncc(n3n2)-c2nccc(n2)COc2ccc(F)cc21 [US20260028352, Example I-80] |
| < 3 | < 5 | C[C@H]1Nc2ccc3ncc(n3n2)-c2cc(ccn2)CCOc2ccc(F)cc21 [US20260028352, Example I-76] |
| < 3 | < 5 | C[C@H]1Nc2ccc3ncc(n3n2)-c2cc(ncn2)CCOc2ccc(F)cc21 [US20260028352, Example I-74] |
| < 3 |  | C[C@H]1Nc2ccc3ncc(n3n2)-c2nccc(n2)CCOc2ccc(F)cc21 [US20260028352, Example I-84] |
| < 3 | < 5 | Fc1ccc2c(c1)[C@H]1CCCN1c1ccc3ncc(n3n1)-c1cc(cnn1)CCO2 [US20260028352, Example I-85] |
| < 3 | < 5 | C[C@H]1Nc2ccc3ncc(n3n2)-c2nccc(n2)COc2ncc(F)cc21 [US20260028352, Example I-81] |
| < 3 |  | Fc1ccc2c(c1)[C@H]1C[C@H](F)CN1c1ccc3ncc(n3n1)-c1nccc(n1)CCO2 [US20260028352, Example I-93] |
| < 3 | < 5 | Fc1cnc2c(c1)[C@H]1CCCN1c1ccc3ncc(n3n1)-c1cc(cnn1)CCO2 [US20260028352, Example I-87] |
| < 3 |  | Fc1cnc2c(c1)[C@H]1CCCN1c1ccc3ncc(n3n1)-c1nccc(n1)CCO2 [US20260028352, Example I-94] |
| < 3 |  | C[C@H]1Nc2ccc3ncc(n3n2)-c2cc(ccn2)CCOc2ncc(F)cc21 [US20260028352, Example I-75] |
| < 3 |  | Fc1cnc2c(c1)[C@H]1C[C@H](F)CN1c1ccc3ncc(n3n1)-c1cc(cnn1)CCO2 [US20260028352, Example I-88] |
| < 3 |  | Fc1ccc2c(c1)[C@H]1C[C@H](F)CN1c1ccc3ncc(n3n1)-c1cc(cnn1)CCO2 [US20260028352, Example I-86] |
| < 3 | < 5 | C[C@H]1Nc2ccc3ncc(n3n2)-c2cc(cnn2)COc2ncc(F)cc21 [US20260028352, Example I-79] |
| < 3 |  | Fc1ccc2c(c1)[C@H]1CCCN1c1ccc3ncc(n3n1)-c1cc(ncn1)CO2 [US20260028352, Example I-69] |
| < 3 |  | C[C@H]1Nc2ccc3ncc(n3n2)-c2cc(ncn2)COc2ncc(F)cc21 [US20260028352, Example I-77] |

More lines, now with the values behind:

| SMILES | IC50 [1] [nM] | IC50 [2] [nM] |
| --- | --- | --- |
| C[C@@H]1Cc2ccnc(c2)-c2cnc3ccc(nn23)N[C@H](C)c2cc(F)cnc2O1 [US20260028352, Example I-36] | < 3 | < 5 |
| Fc1cnc2c(c1)[C@H]1CCCN1c1ccc3ncc(n3n1)-c1cc(ncn1)CO2 [US20260028352, Example I-59] | < 3 |  |
| Fc1cnc2c(c1)[C@H]1CCCN1c1ccc3ncc(n3n1)-c1nccc(n1)CO2 [US20260028352, Example I-63] | < 3 |  |
| Fc1cnc2c(c1)[C@H]1C[C@H](F)CN1c1ccc3ncc(n3n1)-c1cc(ccn1)CCO2 [US20260028352, Example I-54] | < 3 |  |
| Fc1ccc2c(c1)[C@H]1CCCN1c1ccc3ncc(n3n1)-c1cc(cnn1)CO2 [US20260028352, Example I-65] | < 3 | < 5 |
| C[C@@H]1Cc2ccnc(c2)-c2cnc3ccc(nn23)N2CCC[C@@H]2c2cc(F)ccc2O1 [US20260028352, Example I-37] | < 3 | < 5 |
| C[C@@H]1Cc2cc(ncn2)-c2cnc3ccc(nn23)N[C@H](C)c2cc(F)ccc2O1 [US20260028352, Example I-35] | < 3 | < 5 |
| C[C@H]1Nc2ccc3ncc(n3n2)-c2cc(ccn2)N2CCC[C@H](C2)Oc2ccc(F)cc21 [US20260028352, Example I-43] | < 3 |  |
| C[C@H]1Nc2ccc3ncc(n3n2)-c2cc(ncn2)CCOc2ccccc21 [US20260028352, Example I-32] | < 3 | < 5 |
| Fc1cnc2c(c1)[C@H]1CCCN1c1ccc3ncc(n3n1)-c1cc(ccn1)CCO2 [US20260028352, Example I-55] | < 3 |  |
| C[C@@H]1Cc2ccnc(c2)-c2cnc3ccc(nn23)N2C[C@@H](F)C[C@@H]2c2cc(F)cnc2O1 [US20260028352, Example I-40] | < 3 |  |
| Fc1cnc2c(c1)[C@H]1C[C@H](F)CN1c1ccc3ncc(n3n1)-c1cc(ncn1)CO2 [US20260028352, Example I-52] | < 3 | < 5 |
| C[C@@H]1Cc2ccnc(c2)-c2cnc3ccc(nn23)N2C[C@@H](F)C[C@@H]2c2cc(F)ccc2O1 [US20260028352, Example I-39] | < 3 | < 5 |
| C[C@H]1Nc2ccc3ncc(n3n2)-c2cc(ccn2)N2CC[C@H](C2)Oc2ccc(F)cc21 [US20260028352, Example I-41] | < 3 |  |
| Fc1cnc2c(c1)[C@H]1CCCN1c1ccc3ncc(n3n1)-c1cc(cnn1)CO2 [US20260028352, Example I-67] | < 3 |  |
| Fc1ccc2c(c1)[C@H]1CCCN1c1ccc3ncc(n3n1)-c1cc(ccn1)CCO2 [US20260028352, Example I-53] | < 3 |  |
| C[C@H]1Nc2ccc3ncc(n3n2)-c2cc(ccn2)N2CC[C@@H](C2)Oc2ccc(F)cc21 [US20260028352, Example I-42] | < 3 |  |

| SMILES | IC50 [1] [nM] | IC50 [2] [nM] |
| --- | --- | --- |
| Fc1ccc2c(c1)C1(CC1)Nc1ccc3ncc(n3n1)-c1cc(ccn1)CO2 [US20260028352, Example I-47] | < 3 | < 5 |
| Fc1ccc2c(c1)[C@H]1C[C@H](F)CN1c1ccc3ncc(n3n1)-c1cc(ccn1)CCO2 [US20260028352, Example I-56] | < 3 |  |
| Fc1ccc2c(c1)[C@H]1C[C@H](F)CN1c1ccc3ncc(n3n1)-c1cc(ccn1)CO2 [US20260028352, Example I-50] | < 3 |  |
| CC1(C)Nc2ccc3ncc(n3n2)-c2cc(ccn2)COc2ccc(F)cc21 [US20260028352, Example I-48] | < 3 |  |
| Fc1ccc2c(c1)[C@H]1CCCN1c1ccc3ncc(n3n1)-c1cc(ccn1)[C@@H]1CCC[C@H]1O2 [US20260028352, Example I-46] | < 3 | < 5 |
| C[C@@H]1Cc2ccnc(c2)-c2cnc3ccc(nn23)N[C@H](C)c2cc(F)ccc2O1 [US20260028352, Example I-34] | < 3 |  |
| Fc1ccc2c(c1)[C@H]1CCCN1c1ccc3ncc(n3n1)-c1nccc(n1)CO2 [US20260028352, Example I-61] | < 3 | < 5 |
| Fc1cnc2c(c1)[C@H]1C[C@H](F)CN1c1ccc3ncc(n3n1)-c1cc(cnn1)CO2 [US20260028352, Example I-62] | < 3 | < 5 |
| Fc1cnc2c(c1)[C@H]1C[C@H](F)CN1c1ccc3ncc(n3n1)-c1cc(ccn1)CO2 [US20260028352, Example I-60] | < 3 |  |
| Fc1ccc2c(c1)[C@H]1C[C@H](F)CN1c1ccc3ncc(n3n1)-c1cc(cnn1)CO2 [US20260028352, Example I-68] | < 3 |  |
| C[C@H]1Nc2ccc3ncc(n3n2)-c2cc(ccn2)N2CCC[C@@H](C2)Oc2ccc(F)cc21 [US20260028352, Example I-44] | < 3 | < 5 |
| Fc1ccc2c(c1)[C@H]1C[C@H](F)CN1c1ccc3ncc(n3n1)-c1cc(ncn1)CO2 [US20260028352, Example I-58] | < 3 |  |
| Fc1ccc2c(c1)[C@H]1CCCN1c1ccc3ncc(n3n1)-c1cc(ccn1)[C@H]1CCC[C@H]1O2 [US20260028352, Example I-45] | < 3 | < 5 |
| Fc1cnc2c(c1)[C@H]1C[C@H](F)CN1c1ccc3ncc(n3n1)-c1nccc(n1)CO2 [US20260028352, Example I-64] | < 3 |  |
| Fc1cnc2c(c1)[C@H]1CCCN1c1ccc3ncc(n3n1)-c1cc(ccn1)CO2 [US20260028352, Example I-51] | < 3 |  |
| C[C@@H]1Cc2ccnc(c2)-c2cnc3ccc(nn23)N2CCC[C@@H]2c2cc(F)cnc2O1 [US20260028352, Example I-38] | < 3 |  |
